Patent EP4660182A1, “NAV1.7- AND/OR NAV1.8-INHIBITING ARYL PYRIDINE COMPOUNDS, PROCESSES FOR THE PREPARATION THEREOF, COMPOSITIONS, USES, METHODS FOR TREATMENT USING SAME, AND KITS” (Eurofarma Laboratórios S.A., priority 2023, dated 2024)

Experiments:
[1] = biological target: T1, human sodium channels Nav 1.7 (Homo sapiens, UniProt Q15858); assay: Automated whole-cell voltage-clamp (ScreenPatch 384P) sodium current block, Nav 1.7; assay type: cell-based; details: CHO cells stably expressing human Nav 1.7; inactivation step -40 mV 8 s, test step 0 mV (TP1A); eight concentrations; exposure at least five minutes; room temperature; read-out: Nav1.7 IC50
T1 construct: expressed in transfected cells
Procedure, shortened: (§1)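 Stable CHO lines, whole-cell automated patch clamp at room temperature, ≥5 min exposure, eight concentrations. From -100 mV hold, 8 s at -40 mV, 20 ms at -100 mV, then test pulse to 10 mV (Nav 1.8) or 0 mV (Nav 1.7) at 0.05 Hz; peak-current % block fitted for IC50, averaged over repeats.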

[2] = biological target: T2, human sodium channels Nav 1.8 (Homo sapiens, UniProt Q9Y5Y9); assay: Automated whole-cell voltage-clamp (ScreenPatch 384P) sodium current block, Nav 1.8; assay type: cell-based; details: CHO cells stably expressing human Nav 1.8; inactivation step -40 mV 8 s, test step 10 mV (TP1A); eight concentrations; exposure at least five minutes; room temperature; read-out: Nav1.8 IC50
T2 construct: expressed in transfected cells
Procedure, shortened: as §1

T2 sequence (Q9Y5Y9 whole entry): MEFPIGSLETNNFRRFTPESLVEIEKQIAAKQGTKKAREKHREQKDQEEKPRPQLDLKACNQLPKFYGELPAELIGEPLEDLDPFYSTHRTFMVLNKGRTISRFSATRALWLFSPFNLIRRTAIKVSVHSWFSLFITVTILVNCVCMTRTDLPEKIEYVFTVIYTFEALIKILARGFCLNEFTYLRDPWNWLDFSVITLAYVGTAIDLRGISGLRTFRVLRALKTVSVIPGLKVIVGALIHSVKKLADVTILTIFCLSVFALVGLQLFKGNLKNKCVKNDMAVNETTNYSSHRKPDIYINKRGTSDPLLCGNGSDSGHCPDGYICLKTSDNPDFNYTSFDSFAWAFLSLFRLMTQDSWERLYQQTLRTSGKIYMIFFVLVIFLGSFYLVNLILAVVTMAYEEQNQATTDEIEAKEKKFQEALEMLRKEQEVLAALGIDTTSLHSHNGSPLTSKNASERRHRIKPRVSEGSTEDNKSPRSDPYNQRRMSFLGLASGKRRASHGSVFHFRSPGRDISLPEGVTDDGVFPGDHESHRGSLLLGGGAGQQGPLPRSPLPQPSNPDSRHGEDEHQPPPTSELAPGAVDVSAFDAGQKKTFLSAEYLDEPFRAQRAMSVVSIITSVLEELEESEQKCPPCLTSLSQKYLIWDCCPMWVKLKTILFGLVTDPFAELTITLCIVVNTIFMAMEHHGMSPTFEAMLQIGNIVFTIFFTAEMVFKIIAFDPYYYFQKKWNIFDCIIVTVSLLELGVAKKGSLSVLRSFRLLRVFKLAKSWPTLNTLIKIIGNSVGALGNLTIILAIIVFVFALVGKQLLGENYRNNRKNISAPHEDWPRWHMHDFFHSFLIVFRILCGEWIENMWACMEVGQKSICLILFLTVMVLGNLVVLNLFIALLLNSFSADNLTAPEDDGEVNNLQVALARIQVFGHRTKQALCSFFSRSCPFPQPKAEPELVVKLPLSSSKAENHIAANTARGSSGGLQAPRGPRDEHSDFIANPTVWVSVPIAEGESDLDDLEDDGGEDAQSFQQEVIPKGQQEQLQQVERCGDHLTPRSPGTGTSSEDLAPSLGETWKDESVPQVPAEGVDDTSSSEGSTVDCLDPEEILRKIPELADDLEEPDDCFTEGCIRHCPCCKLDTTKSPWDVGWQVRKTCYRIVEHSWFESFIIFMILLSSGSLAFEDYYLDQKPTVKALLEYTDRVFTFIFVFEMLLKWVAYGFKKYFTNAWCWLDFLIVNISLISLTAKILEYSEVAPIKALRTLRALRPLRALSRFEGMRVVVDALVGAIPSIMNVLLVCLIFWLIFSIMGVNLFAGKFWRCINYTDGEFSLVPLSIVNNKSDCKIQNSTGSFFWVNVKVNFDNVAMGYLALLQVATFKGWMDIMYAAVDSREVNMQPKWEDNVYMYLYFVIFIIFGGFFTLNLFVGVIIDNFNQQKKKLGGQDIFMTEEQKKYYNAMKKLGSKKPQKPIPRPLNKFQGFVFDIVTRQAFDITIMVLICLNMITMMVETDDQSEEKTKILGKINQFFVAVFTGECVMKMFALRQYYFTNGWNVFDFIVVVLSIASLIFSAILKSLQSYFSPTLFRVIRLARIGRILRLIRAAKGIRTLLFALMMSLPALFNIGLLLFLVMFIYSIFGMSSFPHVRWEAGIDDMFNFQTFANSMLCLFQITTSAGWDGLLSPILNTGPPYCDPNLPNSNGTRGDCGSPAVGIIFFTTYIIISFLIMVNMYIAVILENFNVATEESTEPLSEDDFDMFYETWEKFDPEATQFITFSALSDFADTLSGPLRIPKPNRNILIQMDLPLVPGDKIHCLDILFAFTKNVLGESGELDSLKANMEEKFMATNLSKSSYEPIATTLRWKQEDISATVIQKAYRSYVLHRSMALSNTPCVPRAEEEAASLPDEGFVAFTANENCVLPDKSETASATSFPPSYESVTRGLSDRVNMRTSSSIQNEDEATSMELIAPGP
T1 sequence (Q15858 whole entry): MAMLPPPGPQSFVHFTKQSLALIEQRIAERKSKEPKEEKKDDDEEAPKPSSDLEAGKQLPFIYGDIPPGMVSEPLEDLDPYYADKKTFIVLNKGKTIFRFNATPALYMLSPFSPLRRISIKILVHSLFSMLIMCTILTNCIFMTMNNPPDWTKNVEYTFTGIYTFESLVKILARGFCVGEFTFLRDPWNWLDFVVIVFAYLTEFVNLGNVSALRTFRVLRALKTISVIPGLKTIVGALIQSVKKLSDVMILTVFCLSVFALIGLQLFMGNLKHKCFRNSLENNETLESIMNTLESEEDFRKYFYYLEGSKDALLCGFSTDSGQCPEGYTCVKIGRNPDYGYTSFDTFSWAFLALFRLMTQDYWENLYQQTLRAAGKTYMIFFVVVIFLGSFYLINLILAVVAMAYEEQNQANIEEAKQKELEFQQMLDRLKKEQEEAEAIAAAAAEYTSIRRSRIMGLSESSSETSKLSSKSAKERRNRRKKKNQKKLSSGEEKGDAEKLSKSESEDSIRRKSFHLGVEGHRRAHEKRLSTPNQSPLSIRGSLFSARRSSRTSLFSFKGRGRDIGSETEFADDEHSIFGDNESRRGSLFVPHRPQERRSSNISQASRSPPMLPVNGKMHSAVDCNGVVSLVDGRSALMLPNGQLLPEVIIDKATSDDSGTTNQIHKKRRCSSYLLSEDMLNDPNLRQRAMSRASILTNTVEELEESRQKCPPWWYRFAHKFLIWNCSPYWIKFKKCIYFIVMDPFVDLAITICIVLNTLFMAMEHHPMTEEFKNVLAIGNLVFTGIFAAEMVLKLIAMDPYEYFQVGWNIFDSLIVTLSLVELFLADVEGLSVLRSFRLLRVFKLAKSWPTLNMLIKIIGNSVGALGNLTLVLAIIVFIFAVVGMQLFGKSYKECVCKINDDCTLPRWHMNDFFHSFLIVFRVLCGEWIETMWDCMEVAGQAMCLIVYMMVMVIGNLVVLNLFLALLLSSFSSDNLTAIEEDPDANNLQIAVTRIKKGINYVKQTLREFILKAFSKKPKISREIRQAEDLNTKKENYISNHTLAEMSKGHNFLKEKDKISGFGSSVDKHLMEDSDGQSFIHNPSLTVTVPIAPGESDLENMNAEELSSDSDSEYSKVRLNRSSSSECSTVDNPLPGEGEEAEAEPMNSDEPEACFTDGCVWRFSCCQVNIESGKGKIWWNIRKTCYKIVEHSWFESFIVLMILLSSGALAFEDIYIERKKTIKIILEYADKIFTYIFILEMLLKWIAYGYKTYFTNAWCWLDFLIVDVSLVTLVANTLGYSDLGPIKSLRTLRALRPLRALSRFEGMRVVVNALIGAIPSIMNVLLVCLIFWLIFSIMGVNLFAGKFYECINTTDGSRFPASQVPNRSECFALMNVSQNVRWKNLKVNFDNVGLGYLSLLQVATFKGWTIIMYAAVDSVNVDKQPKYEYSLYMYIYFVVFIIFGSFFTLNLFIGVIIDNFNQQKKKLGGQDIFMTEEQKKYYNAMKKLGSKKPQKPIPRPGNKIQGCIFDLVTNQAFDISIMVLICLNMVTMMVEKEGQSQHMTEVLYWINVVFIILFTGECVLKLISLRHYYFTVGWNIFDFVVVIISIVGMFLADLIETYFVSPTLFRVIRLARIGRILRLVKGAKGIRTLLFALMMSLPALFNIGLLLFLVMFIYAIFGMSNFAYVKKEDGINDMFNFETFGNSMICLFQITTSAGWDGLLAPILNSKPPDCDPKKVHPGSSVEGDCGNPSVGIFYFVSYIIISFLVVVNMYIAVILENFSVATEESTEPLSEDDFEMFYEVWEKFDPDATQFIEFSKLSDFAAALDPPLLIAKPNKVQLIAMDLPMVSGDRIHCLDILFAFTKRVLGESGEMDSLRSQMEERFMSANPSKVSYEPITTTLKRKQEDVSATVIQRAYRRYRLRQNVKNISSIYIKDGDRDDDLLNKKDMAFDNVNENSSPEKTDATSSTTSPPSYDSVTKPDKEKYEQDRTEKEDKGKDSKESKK

IC50 [1] [nM] | IC50 [2] [nM] | SMILES
> 1000 | > 1000 | CCOc1ccc(-c2cncc(C(=O)N/N=C/c3c[nH]nc3C)n2)cn1 [Compound 57, (E)-6-(6-ethoxypyridine-3-yl)-N'-((3-methyl-1H-pyrazole-4-yl)methylene)pyrazine-2-carbohydrazide]
> 1000 | > 1000 | CC[S+]([O-])c1ccc(-c2cncc(C(=O)N/N=C/c3cc(OC)ccc3F)n2)cn1 (stereo not shown) [Compound 132, (E)-6-(6-(ethylsulfinyl)pyridine-3-yl)-N'-(2-fluoro-5-methoxybenzylidene)pyrazine-2-carbohydrazide]
> 1000 | > 1000 | COc1cnc(F)c(/C=N/N(C)C(=O)c2cncc(-c3ccc(OC(F)F)nc3)n2)c1 [Compound 176, (E)-6-(6-(difluoromethoxy)pyridine-3-yl)-N'-((2-fluoro-5-methoxypyridine-3-yl)methylene)-N-methylpyrazine-2-carbohydrazide]
> 1000 | > 1000 | O=C(N/N=C/c1cccnc1)c1cncc(-c2ccc(OC(F)(F)F)nc2)n1 [Compound 86, (E)-N'-(pyridine-3-ylmethylene)-6-(6-(trifluoromethoxy)pyridine-3-yl)pyrazine-2-carbohydrazide]
> 1000 | < 500 | [2H]C([2H])([2H])COc1ccc(-c2cncc(C(=O)N/N=C/c3cc(OC)cnc3F)n2)cn1 [Compound 168, (E)-6-(6-(ethoxy-2,2,2-d3)pyridine-3-yl)-N'-((2-fluoro-5-methoxypyridine-3-yl)methylene)pyrazine-2-carbohydrazide]
> 1000 | < 500 | COc1ccnc(/C=N/NC(=O)c2cncc(-c3ccc(OC(F)(F)F)nc3)n2)c1 [Compound 85, (E)-N'-((4-methoxypyridine-2-yl)methylene)-6-(6-(trifluoromethoxy)pyridine-3-yl)pyrazine-2-carbohydrazide]
> 1000 | < 500 | COc1cc(/C=N/NC(=O)c2cncc(-c3ccc(OC(F)(F)F)nc3)n2)c(F)cn1 [Compound 96, (E)-N'-((5-fluoro-2-methoxypyridine-4-yl)methylene)-6-(6-(trifluoromethoxy)pyridine-3-yl)pyrazine-2-carbohydrazide]
> 1000 | 500 to 1000 | CC(O)c1cnc(F)c(/C=N/NC(=O)c2cncc(-c3ccc(OC(F)F)nc3)n2)c1 (stereo not shown) [Compound 112, (E)-6-(6-(difluoromethoxy)pyridine-3-yl)-N'-((2-fluoro-5-(1-hydroxyethyl)pyridine-3-yl)methylene)pyrazine-2-carbohydrazide]
< 500 | < 500 | COc1cc(/C=N/NC(=O)c2cncc(-c3ccc(OC4CC4)nc3)n2)c(F)cc1F [Compound 78, (E)-6-(6-cyclopropoxypyridine-3-yl)-N'-(2,4-difluoro-5-methoxybenzylidene) pyrazine-2-carbohydrazide]
> 1000 | < 500 | COc1cnc(F)c(/C=N/NC(=O)c2cncc(-c3ccc(OC(F)(F)F)nc3)n2)c1 [Compound 95, (E)-N'-((2-fluoro-5-methoxypyridine-3-yl)methylene)-6-(6-(trifluoromethoxy)pyridine-3-yl)pyrazine-2-carbohydrazide]
500 to 1000 | < 500 | COc1cc(/C=N/NC(=O)c2cncc(-c3ccc(OC4CC4)nc3)n2)ccc1F [Compound 81, (E)-6-(6-cyclopropoxypyridine-3-yl)-N'-(4-fluoro-3-methoxybenzylidene)pyrazine-2-carbohydrazide]
> 1000 | < 500 | CCOc1cc(C)c(-c2cncc(C(=O)N/N=C/c3cc(OC)cnc3F)n2)cn1 [Compound 151, (E)-6-(6-ethoxy-4-methylpyridine-3-yl)-N'-((2-fluoro-5-methoxypyridine-3-yl)methylene)pyrazine-2-carbohydrazide]
< 500 | < 500 | COc1cnc(F)c(/C=N/NC(=O)c2cccc(-c3ccc(OC(F)F)nc3)n2)c1 [Compound 125, (E)-6'-(difluoromethoxy)-N'-((2-fluoro-5-methoxypyridine-3-yl)methylene)-[2,3'-bipyridine]-6-carbohydrazide]
> 1000 | 500 to 1000 | CCOc1ccc(-c2cncc(C(=O)N/N=C/c3cc(C(C)O)cnc3F)n2)cn1 (stereo not shown) [Compound 25, (E)-6-(6-ethoxypyridine-3-yl)-N'-((2-fluoro-5-(1-hydroxyethyl)pyridine-3-yl)methylene) pyrazine-2-carbohydrazide]

SMILES | IC50 [1] [nM] | IC50 [2] [nM]
CCOc1ccc(-c2cncc(C(=O)N/N=C/c3cccc(O)n3)n2)cn1 [Compound 40, (E)-6-(6-ethoxypyridine-3-yl)-N'-((6-hydroxypyridine-2-yl)methylene)pyrazine-2-carbohydrazide] | > 1000 | > 1000
CN(C)c1cnc(F)c(/C=N/NC(=O)c2cncc(-c3ccc(OC(F)F)nc3)n2)c1 [Compound 105, (E)-6-(6-(difluoromethoxy)pyridine-3-yl)-N'-((5-(dimethylamino)-2-fluoropyridine-3-yl)methylene)pyrazine-2-carbohydrazide] | > 1000 | > 1000
CCOc1ccc(-c2cncc(C(=O)N/N=C/c3cc(OC4CCC4)cnc3F)n2)cn1 [Compound 36, (E)-N'-((5-cyclobutoxy-2-fluoropyridine-3-yl)methylene)-6-(6-ethoxypyridine-3-yl)pyrazine-2-carbohydrazide] | > 1000 | < 500
